# Laboratory results reported in PubChem BioAssay AID1259407 (Chemical Carcinogenesis Research Information System (CCRIS), 2018).
# The source made the active and inactive calls. No rule for the calls is given here.
# System: CCRIS mutagenicity, Ames/micronucleus/aberration tests
# Assay: CCRIS mutagenicity studies
compound,measurement,setting,value
O=C(O)CN(CCN(CC(=O)O)CC(=O)O)CC(=O)O,mutagenic call,"Test System: AMES SALMONELLA TYPHIMURIUM, Strain/Indicator: TA97, Metabolic Activation: HAMSTER, LIVER, S-9, AROCLOR 1254 (10%), Method: PREINCUBATION",inactive; negative
same,mutagenic call,"Test System: AMES SALMONELLA TYPHIMURIUM, Strain/Indicator: TA97, Metabolic Activation: HAMSTER, LIVER, S-9, AROCLOR 1254 (30%), Method: PREINCUBATION",inactive; negative
same,mutagenic call,"Test System: AMES SALMONELLA TYPHIMURIUM, Strain/Indicator: TA97, Metabolic Activation: NONE, Method: PREINCUBATION",inactive; negative
same,mutagenic call,"Test System: AMES SALMONELLA TYPHIMURIUM, Strain/Indicator: TA97, Metabolic Activation: RAT, LIVER, S-9, AROCLOR 1254 (10%), Method: PREINCUBATION",inactive; negative
same,mutagenic call,"Test System: AMES SALMONELLA TYPHIMURIUM, Strain/Indicator: TA97, Metabolic Activation: RAT, LIVER, S-9, AROCLOR 1254 (30%), Method: PREINCUBATION",inactive; negative
same,mutagenic call,"Test System: AMES SALMONELLA TYPHIMURIUM, Strain/Indicator: TA97, Metabolic Activation: S-9, Method: PREINCUBATION",inactive; negative
same,mutagenic call,"Test System: AMES SALMONELLA TYPHIMURIUM, Strain/Indicator: TA98, Metabolic Activation: HAMSTER, LIVER, S-9, AROCLOR 1254 (10%), Method: PREINCUBATION",inactive; negative
same,mutagenic call,"Test System: AMES SALMONELLA TYPHIMURIUM, Strain/Indicator: TA98, Metabolic Activation: HAMSTER, LIVER, S-9, AROCLOR 1254 (30%), Method: PREINCUBATION",inactive; negative
same,mutagenic call,"Test System: AMES SALMONELLA TYPHIMURIUM, Strain/Indicator: TA98, Metabolic Activation: HAMSTER, LIVER, S-9, AROCLOR 1254, Method: STANDARD PLATE",inactive; negative
same,mutagenic call,"Test System: AMES SALMONELLA TYPHIMURIUM, Strain/Indicator: TA98, Metabolic Activation: NONE, Method: PREINCUBATION",inactive; negative
same,mutagenic call,"Test System: AMES SALMONELLA TYPHIMURIUM, Strain/Indicator: TA98, Metabolic Activation: NONE, Method: STANDARD PLATE",inactive; negative
same,mutagenic call,"Test System: AMES SALMONELLA TYPHIMURIUM, Strain/Indicator: TA98, Metabolic Activation: RAT LIVER S-9, PHENOBARBITAL AND BETA-NAPHTHOFLAVONE, Method: PREINCUBATION",inactive; negative
same,mutagenic call,"Test System: AMES SALMONELLA TYPHIMURIUM, Strain/Indicator: TA98, Metabolic Activation: RAT, LIVER, S-9, AROCLOR 1254 (10%), Method: PREINCUBATION",inactive; negative
same,mutagenic call,"Test System: AMES SALMONELLA TYPHIMURIUM, Strain/Indicator: TA98, Metabolic Activation: RAT, LIVER, S-9, AROCLOR 1254 (30%), Method: PREINCUBATION",inactive; negative
same,mutagenic call,"Test System: AMES SALMONELLA TYPHIMURIUM, Strain/Indicator: TA98, Metabolic Activation: RAT, LIVER, S-9, AROCLOR 1254, Method: STANDARD PLATE",inactive; negative
same,mutagenic call,"Test System: AMES SALMONELLA TYPHIMURIUM, Strain/Indicator: TA100, Metabolic Activation: HAMSTER, LIVER, S-9, AROCLOR 1254 (10%), Method: PREINCUBATION",inactive; negative
same,mutagenic call,"Test System: AMES SALMONELLA TYPHIMURIUM, Strain/Indicator: TA100, Metabolic Activation: HAMSTER, LIVER, S-9, AROCLOR 1254 (30%), Method: PREINCUBATION",inactive; negative
same,mutagenic call,"Test System: AMES SALMONELLA TYPHIMURIUM, Strain/Indicator: TA100, Metabolic Activation: HAMSTER, LIVER, S-9, AROCLOR 1254, Method: STANDARD PLATE",inactive; negative
same,mutagenic call,"Test System: AMES SALMONELLA TYPHIMURIUM, Strain/Indicator: TA100, Metabolic Activation: NONE, Method: PREINCUBATION",inactive; negative
same,mutagenic call,"Test System: AMES SALMONELLA TYPHIMURIUM, Strain/Indicator: TA100, Metabolic Activation: NONE, Method: STANDARD PLATE",inactive; negative
same,mutagenic call,"Test System: AMES SALMONELLA TYPHIMURIUM, Strain/Indicator: TA100, Metabolic Activation: RAT LIVER S-9, PHENOBARBITAL AND BETA-NAPHTHOFLAVONE, Method: PREINCUBATION",inactive; negative
same,mutagenic call,"Test System: AMES SALMONELLA TYPHIMURIUM, Strain/Indicator: TA100, Metabolic Activation: RAT, LIVER, S-9, AROCLOR 1254 (10%), Method: PREINCUBATION",inactive; negative
same,mutagenic call,"Test System: AMES SALMONELLA TYPHIMURIUM, Strain/Indicator: TA100, Metabolic Activation: RAT, LIVER, S-9, AROCLOR 1254 (30%), Method: PREINCUBATION",inactive; negative
same,mutagenic call,"Test System: AMES SALMONELLA TYPHIMURIUM, Strain/Indicator: TA100, Metabolic Activation: RAT, LIVER, S-9, AROCLOR 1254, Method: STANDARD PLATE",inactive; negative
same,mutagenic call,"Test System: AMES SALMONELLA TYPHIMURIUM, Strain/Indicator: TA102, Metabolic Activation: NONE, Method: PREINCUBATION",inactive; negative
same,mutagenic call,"Test System: AMES SALMONELLA TYPHIMURIUM, Strain/Indicator: TA102, Metabolic Activation: RAT LIVER S-9, PHENOBARBITAL AND BETA-NAPHTHOFLAVONE, Method: PREINCUBATION",inactive; negative
same,mutagenic call,"Test System: AMES SALMONELLA TYPHIMURIUM, Strain/Indicator: TA102, Metabolic Activation: S-9, Method: PREINCUBATION",inactive; negative
same,mutagenic call,"Test System: AMES SALMONELLA TYPHIMURIUM, Strain/Indicator: TA104, Metabolic Activation: NONE, Method: PREINCUBATION",inactive; negative
same,mutagenic call,"Test System: AMES SALMONELLA TYPHIMURIUM, Strain/Indicator: TA104, Metabolic Activation: RAT LIVER S-9, PHENOBARBITAL AND BETA-NAPHTHOFLAVONE, Method: PREINCUBATION",inactive; negative
same,mutagenic call,"Test System: AMES SALMONELLA TYPHIMURIUM, Strain/Indicator: TA1535, Metabolic Activation: HAMSTER, LIVER, S-9, AROCLOR 1254 (10%), Method: PREINCUBATION",inactive; negative
same,mutagenic call,"Test System: AMES SALMONELLA TYPHIMURIUM, Strain/Indicator: TA1535, Metabolic Activation: HAMSTER, LIVER, S-9, AROCLOR 1254 (30%), Method: PREINCUBATION",inactive; negative
same,mutagenic call,"Test System: AMES SALMONELLA TYPHIMURIUM, Strain/Indicator: TA1535, Metabolic Activation: HAMSTER, LIVER, S-9, AROCLOR 1254, Method: STANDARD PLATE",inactive; negative
same,mutagenic call,"Test System: AMES SALMONELLA TYPHIMURIUM, Strain/Indicator: TA1535, Metabolic Activation: NONE, Method: PREINCUBATION",inactive; negative
same,mutagenic call,"Test System: AMES SALMONELLA TYPHIMURIUM, Strain/Indicator: TA1535, Metabolic Activation: NONE, Method: STANDARD PLATE",inactive; negative
same,mutagenic call,"Test System: AMES SALMONELLA TYPHIMURIUM, Strain/Indicator: TA1535, Metabolic Activation: RAT LIVER S-9, PHENOBARBITAL AND BETA-NAPHTHOFLAVONE, Method: PREINCUBATION",inactive; negative
same,mutagenic call,"Test System: AMES SALMONELLA TYPHIMURIUM, Strain/Indicator: TA1535, Metabolic Activation: RAT, LIVER, S-9, AROCLOR 1254 (10%), Method: PREINCUBATION",inactive; negative
same,mutagenic call,"Test System: AMES SALMONELLA TYPHIMURIUM, Strain/Indicator: TA1535, Metabolic Activation: RAT, LIVER, S-9, AROCLOR 1254 (30%), Method: PREINCUBATION",inactive; negative
same,mutagenic call,"Test System: AMES SALMONELLA TYPHIMURIUM, Strain/Indicator: TA1535, Metabolic Activation: RAT, LIVER, S-9, AROCLOR 1254, Method: STANDARD PLATE",inactive; negative
same,mutagenic call,"Test System: AMES SALMONELLA TYPHIMURIUM, Strain/Indicator: TA1537, Metabolic Activation: HAMSTER, LIVER, S-9, AROCLOR 1254, Method: STANDARD PLATE",inactive; negative
same,mutagenic call,"Test System: AMES SALMONELLA TYPHIMURIUM, Strain/Indicator: TA1537, Metabolic Activation: NONE, Method: PREINCUBATION",inactive; negative
same,mutagenic call,"Test System: AMES SALMONELLA TYPHIMURIUM, Strain/Indicator: TA1537, Metabolic Activation: NONE, Method: STANDARD PLATE",inactive; negative
same,mutagenic call,"Test System: AMES SALMONELLA TYPHIMURIUM, Strain/Indicator: TA1537, Metabolic Activation: RAT LIVER S-9, PHENOBARBITAL AND BETA-NAPHTHOFLAVONE, Method: PREINCUBATION",inactive; negative
same,mutagenic call,"Test System: AMES SALMONELLA TYPHIMURIUM, Strain/Indicator: TA1537, Metabolic Activation: RAT, LIVER, S-9, AROCLOR 1254, Method: STANDARD PLATE",inactive; negative
same,mutagenic call,"Test System: AMES SALMONELLA TYPHIMURIUM, Strain/Indicator: TA1538, Metabolic Activation: HAMSTER, LIVER, S-9, AROCLOR 1254, Method: STANDARD PLATE",inactive; negative
same,mutagenic call,"Test System: AMES SALMONELLA TYPHIMURIUM, Strain/Indicator: TA1538, Metabolic Activation: NONE, Method: STANDARD PLATE",inactive; negative
same,mutagenic call,"Test System: AMES SALMONELLA TYPHIMURIUM, Strain/Indicator: TA1538, Metabolic Activation: RAT, LIVER, S-9, AROCLOR 1254, Method: STANDARD PLATE",inactive; negative
same,mutagenic call,"Test System: E. COLI, Strain/Indicator: WP2 UVRA, Metabolic Activation: HAMSTER, LIVER, S-9, AROCLOR 1254, Method: STANDARD PLATE",inactive; negative
same,mutagenic call,"Test System: E. COLI, Strain/Indicator: WP2 UVRA, Metabolic Activation: HAMSTER, LIVER, S-9, Method: STANDARD PLATE",inactive; negative
same,mutagenic call,"Test System: E. COLI, Strain/Indicator: WP2 UVRA, Metabolic Activation: MOUSE, LIVER, S-9, AROCLOR 1254, Method: STANDARD PLATE",inactive; negative
same,mutagenic call,"Test System: E. COLI, Strain/Indicator: WP2 UVRA, Metabolic Activation: MOUSE, LIVER, S-9, Method: STANDARD PLATE",inactive; negative
same,mutagenic call,"Test System: E. COLI, Strain/Indicator: WP2 UVRA, Metabolic Activation: NONE, Method: STANDARD PLATE",inactive; negative
same,mutagenic call,"Test System: E. COLI, Strain/Indicator: WP2 UVRA, Metabolic Activation: RAT, LIVER, S-9, AROCLOR 1254, Method: STANDARD PLATE",inactive; negative
same,mutagenic call,"Test System: E. COLI, Strain/Indicator: WP2 UVRA, Metabolic Activation: RAT, LIVER, S-9, Method: STANDARD PLATE",inactive; negative
same,mutagenic call,"Test System: E.COLI, Strain/Indicator: WP2UVRA/PKM101, Metabolic Activation: NONE, Method: PREINCUBATION",inactive; negative
same,mutagenic call,"Test System: E.COLI, Strain/Indicator: WP2UVRA/PKM101, Metabolic Activation: RAT LIVER S-9, PHENOBARBITAL AND BETA-NAPHTHOFLAVONE, Method: PREINCUBATION",inactive; negative
same,mutagenic call,"Test System: E.COLI, Strain/Indicator: WP2UVRA, Metabolic Activation: NONE, Method: PREINCUBATION",inactive; negative
same,mutagenic call,"Test System: E.COLI, Strain/Indicator: WP2UVRA, Metabolic Activation: RAT LIVER S-9, PHENOBARBITAL AND BETA-NAPHTHOFLAVONE, Method: PREINCUBATION",inactive; negative
same,mutagenic call,"Test System: MOUSE LYMPHOMA, Strain/Indicator: L5178Y (TK+/TK-), Metabolic Activation: NONE, Method: SUSPENSION/PLATE",active; positive
same,mutagenic call,"Test System: Mouse lymphoma, Strain/Indicator: L5178Y (tk+/tk-), Metabolic Activation: None, Method: Suspension/plate",inactive; negative
same,mutagenic call,"Test System: Mouse lymphoma, Strain/Indicator: L5178Y (tk+/tk-), Metabolic Activation: Rat, Liver, S-9, Aroclor 1254, Method: Suspension/plate",inactive; negative
